Consider 19 compounds from US20170327471A1, “Aryl sulphide and aryl sulphoxide derivatives having C-C-attached uracils as pesticides” (BAYER CROPSCIENCE AKTIENGESELLSCHAFT, priority 2014, published 2017).

Like-named read-outs stand apart in the source and are kept apart here.

The test system of data set [1] is Tetranychus urticae. Put plainly: Tetranychus urticae spray test, OP-resistant (bean leaf discs). The format is in vivo. To be noted: application rate 500 g/ha, after 6 days. As to the method: 4. Tetranychus urticae—Spray Test, OP-Resistant Solvent: 78.0 parts by weight of acetone • • 1.5 parts by weight of dimethylformamide Emulsifier: alkylaryl polyglycol ether
(§1) To produce a suitable preparation of active compound, 1 part by weight of active compound is dissolved using the stated parts by weight of solvent and made up with water containing an emulsifier concentration of 1000 ppm until the desired concentration is attained. To produce further test concentrations, the preparation is diluted with emulsifier-containing water.
Discs of bean leaves (Phaseolus vulgaris) infested with all stages of the greenhouse red spider mite (Tetranychus urticae) are sprayed with an active compound preparation of the desired concentration.
After 6 days, the efficacy in % is determined. 100% means that all the spider mites have been killed; 0% means that none of the spider mites have been killed.

The subject of data set [2] is Tetranychus urticae. Put plainly: Tetranychus urticae spray test, OP-resistant (bean plants). Format: in vivo. As to conditions: application rate 20 ppm, after 7 days. The method, then: 5. Tetranychus urticae-Spray Test, OP-Resistant Solvent: 7 parts by weight of dimethylformamide Emulsifier: alkylaryl polyglycol ether
To produce a suitable preparation of active compound, 1 part by weight of active compound is dissolved using the stated parts by weight of solvent and made up with water containing an emulsifier concentration of 1000 ppm until the desired concentration is attained. To produce further test concentrations, the preparation is diluted with emulsifier-containing water. If the addition of ammonium salts or/and penetrants is required, these are each added in a concentration of 1000 ppm to the preparation solution.
Bean plants (Phaseolus vulgaris) heavily infested by all stages of the greenhouse red spider mite (Tetranychus urticae) are sprayed with an active compound preparation of the desired concentration.
After 7 days, the efficacy in % is determined. 100% means that all the spider mites have been killed; 0% means that none of the spider mites have been killed.

Data set [3] can be described thus: logP by reversed-phase HPLC (EEC Directive 79/831 Annex V.A8). Format: physicochemical. To be noted: for chromatographic logP: reversed-phase C18 HPLC column. The method, then:
The logP values were determined in accordance with EEC Directive 79/831 Annex V.A8 by HPLC (High Performance Liquid Chromatography) using reversed-phase columns (C 18) by the following methods:
^[a] The LC-MS determination in the acidic range was effected at pH 2.7 with 0.1% aqueous formic acid and acetonitrile (contains 0.1% formic acid) as eluents; linear gradient from 10% acetonitrile to 95% acetonitrile. Called logP (HCOOH) in the table.
^[b] LC-MS determination in the neutral range was effected at pH 7.8 with 0.001 molar aqueous ammonium hydrogencarbonate solution and acetonitrile as eluents; linear gradient from 10% acetonitrile to 95% acetonitrile. Called logP (neutral) in the table.
Calibration was effected with unbranched alkan-2-ones (having 3 to 16 carbon atoms) with known logP values (logP values determined on the basis of the retention times by linear interpolation between two successive alkanones).

For data set [4], the system named is Tetranychus urticae. The experiment in a line: Tetranychus urticae drench test, OP-resistant. The format is in vivo. As to conditions: application rate 4 ppm, after 14 days, bean plants in soil. As to the method:
6. Tetranychus urticae—Drench Test, OP-Resistant Solvent: 7 parts by weight of dimethylformamide Emulsifier: 2 parts by weight of alkylaryl polyglycol ether
To produce a suitable preparation of active compound, 1 part by weight of active compound is mixed with the stated amounts of solvent and emulsifier, and the concentrate is diluted with water to the desired concentration, where the volume of soil to be drenched has to be taken into account. Here, it has to be made sure that a concentration of 40 ppm of emulsifier in the soil is not exceeded. To produce further test concentrations, the mixture is diluted with water.
Bean plants (Phaseolus vulgaris) in pots filled with soil, which plants are heavily infested by all stages of the greenhouse red spider mite (Tetranychus urticae), are watered with an active compound preparation of the desired concentration.
After 14 days, the efficacy in % is assessed. 100% means that all spider mites have been killed; 0% means that none of the spider mites have been killed.

The next data set deals with Phaedon cochleariae. Put plainly: Phaedon cochleariae spray test. The format is in vivo. To be noted: application rate 500 g/ha, after 7 days, Chinese cabbage leaf discs. As to the method:
3. Phaedon cochleariae—Spray Test Solvent: 78.0 parts by weight of acetone • • 1.5 parts by weight of dimethylformamide Emulsifier: alkylaryl polyglycol ether
as §1
After 7 days, the efficacy in % is determined. 100% means that all the beetle larvae have been killed; 0% means that no beetle larvae have been killed.

For the next data set, the system named is Meloidogyne incognita. The experiment in a line: Meloidogyne incognita test (sand, lettuce, solvent acetone). As to conditions: application rate 20 ppm, after 14 days, lettuce in sand. The format is in vivo. As to the method:
2. Meloidogyne incognita Test Solvent: 125.0 parts by weight of acetone To produce a suitable preparation of active compound, 1 part by weight of active compound is mixed with the stated amount of solvent and the concentrate is diluted with water to the desired concentration. Vessels are filled with sand, active compound solution, an egg/larvae suspension of the southern root-knot nematode (Meloidogyne incognita) and lettuce seeds. The lettuce seeds germinate and the plants develop. The galls develop on the roots. After 14 days, the nematicidal efficacy in % is determined by the formation of galls. 100% means that no galls were found; 0% means that the number of galls on the treated plants corresponds to the untreated control.

The next data set relates to Boophilus microplus. The experiment in a line: Boophilus microplus injection test. To be noted: application rate, injection into engorged adult female cattle ticks, after 7 days. Format: in vivo. As to the method: 1. Boophilus microplus—Injection Test Solvent: dimethyl sulphoxide
To produce a suitable preparation of active compound, 10 mg of active compound are mixed with 0.5 ml of solvent and the concentrate is diluted with solvent to the desired concentration.
1 μl of the active compound solution is injected into the abdomen of 5 engorged adult female cattle ticks (Boophilus microplus). The animals are transferred into dishes and kept in a climate-controlled room.
Efficacy is assessed after 7 days by laying of fertile eggs. Eggs which are not visibly fertile are stored in a climate-controlled cabinet until the larvae hatch after about 42 days. An efficacy of 100% means that none of the ticks has laid any fertile eggs; 0% means that all the eggs are fertile.

Where [5] appears, read: acidic range, pH 2.7, 0.1% aqueous formic acid/acetonitrile.
Where [6] appears, read: neutral range, pH 7.8, 0.001 molar aqueous ammonium hydrogencarbonate/acetonitrile.
Where [7] appears, read: acidic range, pH 2.7, 0.1% aqueous formic acid/acetonitrile, read-out: logP (HCOOH) = logP[a].
[8] abbreviates: neutral range, pH 7.8, 0.001 molar aqueous ammonium hydrogencarbonate/acetonitrile, read-out: logP (neutral) = logP[b].

Turning to `CCn1c(-c2cc(SCC(F)(F)F)c(C)cc2F)cc(=O)n(CC)c1=O` [Example I-7], the “efficacy (spider mites killed)” value in the data set with Tetranychus urticae [1] was 90%; in the data set with Tetranychus urticae [2], 100%. The “logP (HCOOH) = logP[a]” value in data set [3] (setting [5]) is on record as 3.54. In addition, the “logP (neutral) = logP[b]” value in data set [3] (setting [6]) is 3.47.

For the compound `Cc1cc(F)c(-c2cc(=O)[nH]c(=S)[nH]2)cc1SCC(F)(F)F` [Example I-14, 6-{2-Fluoro-4-methyl-5-[(2,2,2-trifluoroethyl)sulphanyl]phenyl}-2-thioxo-2,3-dihydropyrimidin-4(1H)-one], the chromatographic logP in data set [3] (setting [7]) is 2.34; in data set [3] (setting [8]) it was 1.54.

For `CCOC(=O)CC(=O)c1cc(SCC(F)(F)F)c(C)cc1F` [VI-01, ethyl 3-{2-fluoro-4-methyl-5-[(2,2,2-trifluoroethyl)sulphanyl]phenyl}-3-oxopropanoate], the chromatographic logP in data set [3] (setting [7]) is 3.57; in data set [3] (setting [8]), 3.59.

In the case of `CCCn1c(-c2cc(SCC(F)(F)F)c(C)cc2F)cc(=O)n(CCC)c1=O` [Example I-5], the “efficacy (spider mites killed)” value in the data set with Tetranychus urticae [1] was found to be 90%. Besides, the “logP (HCOOH) = logP[a]” value in data set [3] (setting [5]) is 4.26. The “logP (neutral) = logP[b]” value in data set [3] (setting [6]) is listed as 4.16.

Consider `Cc1cc(F)c(-c2cc(=O)n(C(C)C)c(=O)n2C(C)C)cc1SCC(F)(F)F` [Example I-6], for which the “efficacy (spider mites killed)” value with Tetranychus urticae [1] is 100%. For the same compound, the “logP (HCOOH) = logP[a]” value in data set [3] (setting [5]) is reported as 4.52. The “logP (neutral) = logP[b]” value in data set [3] (setting [6]) is listed as 4.42.

On to `Cc1cc(F)c(-c2cc(=O)n(C)c(=O)n2C)cc1SCC(F)(F)F` [Example I-2, 6-{2-Fluoro-4-methyl-5-[(2,2,2-trifluoroethyl)sulphanyl]phenyl}-1,3-dimethylpyrimidine-2,4(1H,3H)-dione], for which the “efficacy (spider mites killed)” value with Tetranychus urticae [1] came to 100%; in the data set with Tetranychus urticae [4], 99%; in the data set on Tetranychus urticae [2], 100%. Moreover, in the data set on Phaedon cochleariae, the “efficacy (beetle larvae killed)” value is listed as 83%. The chromatographic logP in data set [3] (setting [7]) worked out at 2.86; in data set [3] (setting [8]) it was 2.74. Further, the “nematicidal efficacy (formation of galls)” value in the data set on Meloidogyne incognita turned out to be 90%. Besides, the “efficacy (no fertile eggs laid)” value with Boophilus microplus is 100%.

Take `CCn1c(=O)c(F)c(-c2cc(SCC(F)(F)F)c(C)cc2F)n(C)c1=O` [Example I-3, 3-Ethyl-5-fluoro-6-{2-fluoro-4-methyl-5-[(2,2,2-trifluoroethyl)-sulphanyl]phenyl}-1-methylpyrimidine-2,4(1H,3H)-dione]: the chromatographic logP was 3.32 in data set [3] (setting [7]) and 3.42 in data set [3] (setting [8]).

As to `CCn1c(-c2cc([S+]([O-])CC(F)(F)F)c(C)cc2F)cc(=O)n(CC)c1=O` (stereo not drawn) [Example I-10], the “efficacy (spider mites killed)” value with Tetranychus urticae [1] turned out to be 100%; in the data set on Tetranychus urticae [4] it was 95%; in the data set with Tetranychus urticae [2] it was 100%. In data set [3] (setting [5]), the “logP (HCOOH) = logP[a]” value was found to be 2.37. For the same compound, the “logP (neutral) = logP[b]” value in data set [3] (setting [6]) is 2.28. For the same compound, the “efficacy (no fertile eggs laid)” value in the data set with Boophilus microplus was 100%.

Regarding `CCn1c(=O)c(F)c(-c2cc([S+]([O-])CC(F)(F)F)c(C)cc2F)n(C)c1=O` (stereo not drawn) [Example I-11], the “efficacy (spider mites killed)” value with Tetranychus urticae [1] was 100%. Moreover, in data set [3] (setting [5]), the “logP (HCOOH) = logP[a]” value turned out to be 2.20. Besides, in data set [3] (setting [6]), the “logP (neutral) = logP[b]” value is given as 2.19. Further, the “efficacy (no fertile eggs laid)” value in the data set on Boophilus microplus stood at 100%.

On to `Cc1cc(F)c(-c2cc(=O)n(C(C)C)c(=O)n2C(C)C)cc1[S+]([O-])CC(F)(F)F` (stereo not drawn) [Example I-9], for which the “efficacy (spider mites killed)” value in the data set with Tetranychus urticae [1] is 100%. The “logP (HCOOH) = logP[a]” value in data set [3] (setting [5]) was found to be 3.19. For the same compound, in data set [3] (setting [6]), the “logP (neutral) = logP[b]” value came out at 3.10. The “efficacy (no fertile eggs laid)” value in the data set on Boophilus microplus stood at 100%.

Consider `Cc1cc(C)c([S+]([O-])CC(F)(F)F)cc1-c1cc(=O)n(C)c(=O)n1C` (stereo not drawn) [Example I-12], for which the “efficacy (spider mites killed)” value in the data set on Tetranychus urticae [1] is recorded as 100%. Besides, the “logP (HCOOH) = logP[a]” value in data set [3] (setting [5]) is 1.89. For the same compound, the “logP (neutral) = logP[b]” value in data set [3] (setting [6]) is 1.82. Besides, the “efficacy (no fertile eggs laid)” value in the data set with Boophilus microplus was 100%.

Consider `Cc1cc(F)c(-c2cc(=O)n(C)c(=O)[nH]2)cc1SCC(F)(F)F` [Example I-13, 6-{2-Fluoro-4-methyl-5-[(2,2,2-trifluoroethyl)sulphanyl]phenyl}-3-methylpyrimidine-2,4(1H,3H)-dione], for which the chromatographic logP is 2.38 in data set [3] (setting [7]) and 2.25 in data set [3] (setting [8]).

On to `Cc1cc(F)c(-c2c(Cl)c(=O)n(C)c(=O)n2C)cc1SCC(F)(F)F` [Example I-16, 5-Chloro-6-{2-fluoro-4-methyl-5-[(2,2,2-trifluoroethyl)sulphanyl]phenyl}-1,3-dimethylpyrimidine-2,4(1H,3H)-dione], for which the “efficacy (spider mites killed)” value in the data set with Tetranychus urticae [1] is 90%. In addition, the chromatographic logP in data set [3] (setting [7]) was determined as 3.15.

Take `CCn1c(=O)c(C)c(Cl)n(C)c1=O` [II-02, 6-chloro-3-ethyl-1,5-dimethylpyrimidine-2,4(1H,3H)-dione]: the chromatographic logP in data set [3] (setting [7]) came to 1.59.

For the compound `CCn1c(=O)[nH]c(-c2cc(SCC(F)(F)F)c(C)cc2F)c(F)c1=O` [Example I-8], in data set [3] (setting [5]), the “logP (HCOOH) = logP[a]” value is listed as 2.72.

As to `Cc1cc(C)c(-c2cc(=O)n(C)c(=O)n2C)cc1SCC(F)(F)F` [Example I-4], in data set [3] (setting [7]), the chromatographic logP worked out at 2.98.

In the case of `Cc1cc(F)c(-c2cc(=O)n(CC(F)(F)F)c(=S)n2C)cc1SCC(F)(F)F` [Example I-15], the figures for the “efficacy (spider mites killed)” value in the data set on Tetranychus urticae [1], with Tetranychus urticae [4] and in the data set on Tetranychus urticae [2] were 90%, 100% and 100%, respectively. The “efficacy (beetle larvae killed)” value with Phaedon cochleariae turned out to be 100%. Besides, in data set [3] (setting [5]), the “logP (HCOOH) = logP[a]” value was 4.34.

For the compound `Cc1cc(F)c(-c2cc(=O)n(C)c(=O)[nH]2)cc1[S+]([O-])CC(F)(F)F` (stereo not drawn) [Example I-17], the “logP (HCOOH) = logP[a]” value in data set [3] (setting [5]) is on record as 1.41. The “logP (neutral) = logP[b]” value in data set [3] (setting [6]) was determined as 1.43.

On to `CCn1c(=O)c(F)c(Cl)n(C)c1=O` [II-01, 6-chloro-3-ethyl-5-fluoro-1-methylpyrimidine-2,4(1H,3H)-dione], for which the chromatographic logP in data set [3] (setting [7]) is 1.31.
